Reference: BindingDB's records for doi:10.1021/cb900264w (The Weizmann Institute of Science, 2010)

How the values were obtained:
[1] = target: T1, Amine oxidase [flavin-containing] B (Rattus norvegicus, UniProt P19643); assay: Enzyme Inhibition Assay; details: pH 7.4; 37 °C
T1 sequence (P19643 whole entry): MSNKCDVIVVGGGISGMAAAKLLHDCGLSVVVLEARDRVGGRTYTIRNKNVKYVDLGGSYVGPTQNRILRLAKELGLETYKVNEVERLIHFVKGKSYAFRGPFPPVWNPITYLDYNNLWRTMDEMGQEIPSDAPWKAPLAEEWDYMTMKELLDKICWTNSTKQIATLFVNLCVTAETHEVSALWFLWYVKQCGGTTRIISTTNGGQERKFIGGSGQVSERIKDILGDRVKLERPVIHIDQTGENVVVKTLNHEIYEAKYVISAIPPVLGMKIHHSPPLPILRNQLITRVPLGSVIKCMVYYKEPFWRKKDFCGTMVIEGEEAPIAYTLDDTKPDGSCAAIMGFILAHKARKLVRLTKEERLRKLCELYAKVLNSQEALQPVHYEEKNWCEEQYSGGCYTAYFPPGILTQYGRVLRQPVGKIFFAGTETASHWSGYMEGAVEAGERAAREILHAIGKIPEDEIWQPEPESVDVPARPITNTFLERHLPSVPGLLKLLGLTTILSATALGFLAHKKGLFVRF
From the text: (§1) Inhibition of MAO activity in rat brain homogenates.

[2] = target: T2, Amine oxidase [flavin-containing] A (Rattus norvegicus, UniProt P21396); assay: Enzyme Inhibition Assay; details: pH 7.4; 37 °C
T2 sequence (P21396 whole entry): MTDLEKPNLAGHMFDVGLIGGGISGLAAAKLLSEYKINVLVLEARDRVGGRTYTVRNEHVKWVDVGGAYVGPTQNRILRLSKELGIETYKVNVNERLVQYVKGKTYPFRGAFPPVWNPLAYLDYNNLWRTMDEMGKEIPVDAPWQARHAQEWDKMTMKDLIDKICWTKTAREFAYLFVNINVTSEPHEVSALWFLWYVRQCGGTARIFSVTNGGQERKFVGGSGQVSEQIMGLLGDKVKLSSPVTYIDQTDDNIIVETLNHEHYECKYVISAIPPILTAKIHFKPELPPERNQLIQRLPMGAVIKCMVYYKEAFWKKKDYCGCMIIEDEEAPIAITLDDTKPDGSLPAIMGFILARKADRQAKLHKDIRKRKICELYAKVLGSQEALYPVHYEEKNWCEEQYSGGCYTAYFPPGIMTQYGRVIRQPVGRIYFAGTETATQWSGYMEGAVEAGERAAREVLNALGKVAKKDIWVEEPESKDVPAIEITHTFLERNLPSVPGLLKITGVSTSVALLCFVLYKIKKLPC
From the text: as §1

| Structure (SMILES) | IC50 [1] | IC50 [2] |
| --- | --- | --- |
| C#CCN(C)Cc1ccc(O)c2ncccc12 [Chelator, M30] | 37 nM | – |
| C#CCN(C)Cc1ccc(OC(=O)N(C)C)c2ncccc12 [Prochelators, 2] | 7900 nM | 7.7 nM |
| C#CCN(C)Cc1ccc(OC(=O)N(C)CC)c2ncccc12 [Prochelators, 3] | – | 9.6 nM |
